Test results reported in ChEMBL document CHEMBL4376865, “Discovery and Characterization of 1H-1,2,3-Triazole Derivatives as Novel Prostanoid EP4 Receptor Antagonists for Cancer Immunotherapy” (J Med Chem, 2020).

Legend:
[1] = biological target: CYP2D6 (Homo sapiens, UniProt P10635); assay: Inhibition of CYP2D6 in human liver microsomes at 20 uM using dextromethorphan as substrate incubated for 60 mins by HPLC analysis relative to control; format: ADME; conditions: probe dextromethorphan
[2] = biological target: Prostaglandin E2 receptor EP4 subtype (Mus musculus, UniProt P32240); assay: Antagonist activity at mouse EP4 expressed in CHO cells coexpressing G16-alpha assessed as intracellular calcium flux preincubated for 15 mins followed by addition of PGE2 by calcium flux assay; format: functional, cell-based
Chain of Prostaglandin E2 receptor EP4 subtype (Mus musculus, UniProt P32240) (P32240 whole entry): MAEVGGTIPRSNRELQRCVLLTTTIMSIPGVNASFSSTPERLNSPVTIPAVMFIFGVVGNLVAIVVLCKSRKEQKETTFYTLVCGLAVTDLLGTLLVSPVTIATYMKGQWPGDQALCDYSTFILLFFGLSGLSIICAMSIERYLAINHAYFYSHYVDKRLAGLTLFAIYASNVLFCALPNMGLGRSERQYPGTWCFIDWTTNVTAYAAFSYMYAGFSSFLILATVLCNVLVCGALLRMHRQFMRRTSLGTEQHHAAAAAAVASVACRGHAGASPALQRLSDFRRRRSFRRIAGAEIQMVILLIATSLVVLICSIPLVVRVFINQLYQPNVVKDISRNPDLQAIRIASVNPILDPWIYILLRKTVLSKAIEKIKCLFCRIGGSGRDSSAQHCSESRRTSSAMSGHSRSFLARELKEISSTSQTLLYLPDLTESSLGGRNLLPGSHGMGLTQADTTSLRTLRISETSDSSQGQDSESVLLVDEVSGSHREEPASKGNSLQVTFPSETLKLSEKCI

[3] = biological target: T1, CYP2B6 (Homo sapiens, UniProt P20813); assay: Inhibition of CYP2B6 in human liver microsomes at 20 uM incubated for 60 mins by HPLC analysis relative to control; format: ADME
T1 sequence (P20813 whole entry): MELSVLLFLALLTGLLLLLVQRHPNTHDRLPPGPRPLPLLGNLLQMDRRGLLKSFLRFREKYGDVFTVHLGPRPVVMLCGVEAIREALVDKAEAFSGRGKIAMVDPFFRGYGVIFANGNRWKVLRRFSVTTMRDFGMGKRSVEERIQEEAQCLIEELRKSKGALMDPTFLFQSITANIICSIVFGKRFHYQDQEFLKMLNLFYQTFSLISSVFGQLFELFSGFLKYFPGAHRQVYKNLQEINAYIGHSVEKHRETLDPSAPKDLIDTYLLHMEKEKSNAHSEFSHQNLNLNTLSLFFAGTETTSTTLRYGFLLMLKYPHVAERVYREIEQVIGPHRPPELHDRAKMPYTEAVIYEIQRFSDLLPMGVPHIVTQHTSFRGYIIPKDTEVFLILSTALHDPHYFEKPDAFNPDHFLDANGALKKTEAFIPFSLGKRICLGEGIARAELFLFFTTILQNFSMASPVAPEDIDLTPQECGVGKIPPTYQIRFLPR

[4] = Apparent volume of distribution in BALB/c mouse at 1 mg/kg, iv measured upto 24 hrs by LC-MS/MS analysis; conditions: in vivo
[5] = biological target: Prostaglandin E2 receptor EP4 subtype (Homo sapiens, UniProt P35408); assay: Inhibition of human EP4 transfected in human HEK293 cells assessed as reduction in PGE2-induced cAMP level incubated for 15 mins followed by PGE2 stimulation and measured every 2 mins for 30 mins by GloSensor cAMP Assay
Chain of Prostaglandin E2 receptor EP4 subtype (Homo sapiens, UniProt P35408) (P35408 whole entry): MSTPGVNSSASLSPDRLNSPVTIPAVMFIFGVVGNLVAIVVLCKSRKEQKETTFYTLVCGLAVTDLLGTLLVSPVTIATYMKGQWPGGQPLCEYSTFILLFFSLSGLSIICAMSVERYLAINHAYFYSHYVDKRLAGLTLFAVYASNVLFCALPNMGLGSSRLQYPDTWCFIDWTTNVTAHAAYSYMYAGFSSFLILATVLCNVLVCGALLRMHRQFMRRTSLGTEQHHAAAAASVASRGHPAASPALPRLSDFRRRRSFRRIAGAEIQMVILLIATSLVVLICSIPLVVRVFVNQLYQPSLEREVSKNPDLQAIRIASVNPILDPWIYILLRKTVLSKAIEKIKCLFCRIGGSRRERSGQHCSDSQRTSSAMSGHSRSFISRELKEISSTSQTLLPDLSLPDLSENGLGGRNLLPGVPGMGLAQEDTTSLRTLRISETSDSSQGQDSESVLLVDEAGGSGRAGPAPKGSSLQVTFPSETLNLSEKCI

[6] = in vivo; conditions: BALB/c, mouse, iv, 1 mg/kg
[7] = in vivo; conditions: BALB/c, mouse, po, 5 mg/kg
Description: Cmax in BALB/c mouse at 5 mg/kg, po measured upto 24 hrs by LC-MS/MS analysis

Chain of CYP2D6 (P10635 whole entry): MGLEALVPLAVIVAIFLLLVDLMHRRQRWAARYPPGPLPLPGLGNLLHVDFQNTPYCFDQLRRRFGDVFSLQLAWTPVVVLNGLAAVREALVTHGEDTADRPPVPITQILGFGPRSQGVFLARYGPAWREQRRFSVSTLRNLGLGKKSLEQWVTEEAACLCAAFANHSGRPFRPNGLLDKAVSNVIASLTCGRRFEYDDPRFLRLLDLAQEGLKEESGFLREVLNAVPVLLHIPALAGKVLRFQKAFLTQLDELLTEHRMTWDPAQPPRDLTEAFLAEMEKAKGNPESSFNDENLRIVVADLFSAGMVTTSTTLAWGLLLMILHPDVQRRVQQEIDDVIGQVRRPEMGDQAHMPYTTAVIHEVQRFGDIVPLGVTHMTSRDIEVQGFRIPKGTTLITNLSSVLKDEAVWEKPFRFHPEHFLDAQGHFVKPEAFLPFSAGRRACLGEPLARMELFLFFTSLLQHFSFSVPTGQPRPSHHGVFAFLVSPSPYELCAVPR

inhibition at 1 h, 20 µM [1]: 23%
IC50 [2]: 0.0162 µM
inhibition at 1 h, 20 µM [3]: 26%
Vd at 24 h [4]: 10.2 L/kg
IC50 [5]: 0.0187 µM
Kb [5]: 0.00562 µM
AUC(0-inf) at 24 h [6]: 575 ng·h/mL
Cmax at 24 h [7]: 194 ng/mL
SMILES: C/C=C/c1nnn(Cc2ccc(C(F)(F)F)cc2)c1C(=O)N[C@@H](C)c1ccc(C(=O)O)cc1
